# How the values were obtained:
# [1] = test system: ovarian cancer cell lines; parameters: method as in doi:10.1021/OM500317B; conditions: ovarian cancer cell lines ref 20; cited from earlier work
# [2] = test system: cervical, breast, hepatocellular and colorectal cancer cell lines; parameters: method as in PMID 24793593; conditions: hepatocellular and colorectal cancer cell lines ref 19; cited from earlier work
# [3] = test system: c-myc i-motif DNA; assay: I-motif DNA UV melting (thermal stability); format: binding, human; conditions: for Tm: c-myc i-motif with flavone at 1 : 1 ratio, 295 nm, free DNA 45 °C; for ΔTm: c-myc i-motif, 1 : 1 ratio, ΔTm = Tm (DNA-flavone) − Tm (DNA)
# Text: (§1) The effect of this set of flavones on VEGF and c-myc was further evaluated via thermal stability measurements. Stabilizing/destabilizing the promotor i-motif structures is often reported to regulate expression of the corresponding genes, which for VEGF and c-myc could have detrimental effects on cancer growth and propagation.[48] As observed in Fig. 9, effects of the test flavones on the thermal stability of the VEGF and c-myc i-motif sequences were generally marginal and in agreement with λmax chromophoric shifts. […] Compound 1 destabilized VEGF i-motif in contrast to stabilizing the c-myc one. This mirrored the trend of a higher chromophoric shift observed for flavone 1 with VEGF i-motif sequence that also differed in pattern (hypochromic) from the shift witnessed with the c-myc sequence (hyperchromic). These findings could indicate higher selectivity of the 4-oxo derivative (1) towards VEGF i-motif based on an intercalative binding mode especially that hypochromic shifts are reported with DNA intercalation.[49,50] […] In this regard, the highest i-motif activity seen for the parent flavonoids was switched from VEGF to c-myc with compound 1 and vice versa with compound 2 upon Ru chelation. This emphasizes the key role of the interplay between the substitution at position 4 and metal complexation on the interaction with biological targets.
# (§2) UV-visible absorbance measurements and DNA UV melting studies were performed on a Cary 300 C (Varian USA) UV-visible spectrophotometer. VEGF and c-myc i-motif DNA (5′-3′ sequences ([…]) and ([…]), respectively) were purchased from Sigma-Aldrich (Gillingham, UK) and used without further purification. Na cacodylate buffer (20 mM, pH 5.5) was used for both i-motifs. DNA concentrations were determined by measuring the absorbance at 260 nm after melting using the molar extinction coefficient supplied by the manufacturer. VEGF and c-myc i-motifs were prepared for experiments by diluting with buffer solution, annealed with or without the flavonoid at 95 °C for 5 min then gently cooled to room temperature. The stock solutions of the test compounds (20 mM) were prepared in 100% sterile DMSO. These stocks were then appropriately diluted with HPLC grade water and DMSO levels were maintained below 0.1% in the test concentrations.
# (§3) UV-visible absorbance measurements and UV melting studies of either free i-motifs (VEGF or c-myc), free flavone (1, 1Ru, 2 or 2Ru) or both i-motif DNA and flavone (2 μM: 2 μM) were recorded using 1.0 cm matched quartz cuvettes. First spectra were recorded in the range of 200–500 nm to determine the relevant wavelength range were no peaks were observed above 320 nm. […] UV-visible absorbance was measured at 25 °C while melting curves were collected at a heating rate of 1 °C min^−1 from 20 to 90 °C. Tm was calculated by non-linear fitting of the sigmoidal curve obtained at 295 nm.
# [4] = test system: VEGF i-motif DNA; assay: I-motif DNA UV melting (thermal stability); format: binding, human; conditions: for Tm: VEGF i-motif with flavone at 1 : 1 ratio, 295 nm, free DNA 46 °C; for ΔTm: VEGF i-motif, 1 : 1 ratio, ΔTm = Tm (DNA-flavone) − Tm (DNA)
# Text: as §1, §2, §3
# [5] = test system: MCF-7; assay: Wound healing (migration) 24 h scratch assay; format: cell-based, human; conditions: MCF-7, any of the tested doses (1, 10, 20 μM)
# Method: (§4) Malignant cell migration is essential for tumour invasion and metastasis.[1] Thus, the ability of the synthetic flavones (1 and 2) and their Ru(II) metal complexes (1Ru and 2Ru) to inhibit the migration of breast cancer cells (MCF-7 and MDA-MB-231) was assessed by an in vitro 24 h scratch assay. Low, sub-cytotoxic concentrations of 1, 10 and 20 μM were used in this evaluation.
# (§5) MCF-7 or MDA-MB-231 cells were seeded in 12-well plates at 2 × 10^5 or 1 × 10^5 cells per mL, respectively, and cultured until 70–80% confluency. Afterwards, they were serum-starved (0% serum) for 24 h to inactivate the cell proliferation. A scratch was performed on the cell monolayers using a 200 μL pipette tip. Cells were then washed twice with PBS and treated with complete medium and one of the synthesized derivatives at 1, 10 or 20 μM. […] Images of the scratches were taken immediately after performing the scratch (t = 0 h) and at 24 h (t = 24 h). The area not covered by the cells was quantified using ImageJ software. % of wound closure was calculated using the following equation:100 × ((Area of scratch at t0 − Area of scratch at t24)/Area of scratch at t0)
# [6] = test system: MDA-MB-231; assay: Wound healing (migration) 24 h scratch assay; format: cell-based, human; conditions: MDA-MB-231, 1, 10, 20 μM, 24 h
# Method: as §4, §5
# [7] = test system: MCF-7; assay: Cell viability, 72 h MTT assay; format: cell-based, human; conditions: Homo sapiens, MCF7; MCF-7, 72 h MTT, mean ± SEM, n = 3
# Method: (§6) The unique chemical features and coordination geometries of metal ions can add several additional binding interactions that can potentially enhance their anticancer properties for example by allowing intercalation and exploitation of their redox potential.[24] […] In that context, coordination of derivative (2) with a Ru(II) metal ligand is a promising approach to further improve its antiproliferative activity.
# (§7) MCF-7 and MDA-MB-231 cells were seeded at a density of 4 × 10^4 and 2 × 10^4 cells per mL, respectively, into 96 well plates and incubated to allow the attachment for 24 h. After 24 h, the cells were treated with one of the synthesised derivatives at range of concentrations (0–100 μM) for 67 h. After 67 h, 20 μL of MTT (5 mg mL^−1) solution in PBS was added to each well and the cells were incubated for 5 h. The purple crystals formed were dissolved in 100 μL of DMSO and the plates were read at 560 nm using a SPECTRA max UV spectrometer (Bio-Rad). The data represented are the mean of the three individual experiments.
# [8] = test system: MDA-MB-231; assay: Cell viability, 72 h MTT assay; format: cell-based, human; conditions: Homo sapiens; MDA-MB-231, 72 h MTT, mean ± SEM, n = 3
# Method: as §6, §7
# [9] = Cytotoxicity on HUVECs, trypan blue exclusion assay; format: cell-based, human; conditions: human, HUVEC cells, % of control, p > 0.05 vs control, read-out: Cell viability of HUVECs
# Method: The biocompatibility of flavones (1 and 2)[30] alongside their ruthenium(II) metal complexes (1Ru and 2Ru) with HUVEC cells was established using the trypan blue exclusion assay. A concentration four times higher (i.e. 40 μM) than the highest concentration used for the tube formation antiangiogenic evaluation study (i.e. 10 μM) was selected for this cytotoxic assay.
# Cytotoxic activity of treatments on HUVECs using trypan blue exclusion assay.[55] HUVECs were seeded in 96 well plates at 1 × 10^5 cells per mL and cultured for 24 h. Cells were then treated with either luteolin, the synthesised derivatives at 40 μM or culture medium (control) for 24 h. After 24 h, solutions were removed and cells washed with 100 μL PBS followed by the addition of 50 μL trypsin–EDTA and incubation for 5 min to detach the cells. 50 μL of EGM-2 media was added to the wells. 50 μL aliquots of the cell suspension were mixed with equal volume of trypan blue (TB) 0.2% v/v (prepared from 0.4% TB diluted with PBS) then the cells were counted using a haemocytometer. Number of viable and dead cells were counted manually and % cell viability of each treatment was expressed as % of control using the equation:% Cell Viability = (Cell viability in treatment/Cell viability in control) × 100where cell viability was calculated as follows:Cell Viability = Number of viable cells/Total number of cells(viable and dead).
# [10] = test system: c-myc i-motif DNA; assay: I-motif DNA binding, UV-visible absorbance; parameters: species or system human; conditions: DNA : flavonoid 2 μM : 2 μM, pH 5.5, 25 °C
# Text: (§8) I-motifs are four stranded antiparallel cytosine rich DNA sequences capable of forming at telomere and promotor regions of genomic DNA.[41,42] […] Due to the presence of potential i-motif forming sequences in 69% of promoter regions in human oncogenes, they are postulated to play a key role in oncogene expression regulation.[44] VEGF and c-myc i-motif sequences are prevalent in oncogene promotor regions in many cancers including breast cancer and as such their ligands have potential anticancer roles.[45] The natural flavonol, fisetin, is reported to specifically bind to VEGF i-motif DNA and regulate its function by stabilizing its hairpin structure.[31] […] In continuation of our investigation of the effects of Ru metal complexation on the different biological activities of flavonoids, interactions with VEGF and c-myc i-motif DNA were studied using UV-vis spectroscopic techniques. […] However, 2Ru's addition led to a 1 nm hypsochromic shift of VEGF i-motif absorbance maximum from 272 to 271 nm. On the other hand, addition of the 4-oxo flavone (1) and its Ru complex (1Ru) led to minor changes in λmax of both sequences that was hypochromic (5% and 3%) with VEGF and hyperchromic (2% and 5%) in case of c-myc (Fig. 8).
# as §2, §3
# [11] = test system: VEGF i-motif DNA; assay: I-motif DNA binding, UV-visible absorbance; parameters: species or system human; conditions: DNA : flavonoid 2 μM : 2 μM, pH 5.5, 25 °C
# Text: as §8, §2, §3
# [12] = test system: HUVECs; assay: Matrigel endothelial cell tube formation assay (VEGF-mediated); format: cell-based, human; conditions: compared to the positive control (10 ng mL^−1 VEGF), 12 h
# Method: In our recent study,[30] the 4′-chlorophenylflavone derivatives 1 and 2 have shown promising antiangiogenic activities in vitro. Herein, the effect of complexation with a ruthenium(II) metal ligand on the antiangiogenic activity of 1 and 2 was evaluated using the Matrigel tube formation assay that assesses many of the main steps involved in the process of angiogenesis. Inhibition of VEGF-mediated tube formation by the tested substrates was observed after 12 h of treatment on HUVECs at 1 μM and 10 μM concentrations. Luteolin is a natural flavone well known for its high antiangiogenic activity both in vitro and in vivo[34] and as such was used in this study as a reference standard. In accordance with reported data, luteolin inhibited the measured elements of tube formation by 30% compared to the positive control.[34,35] […] The ability of Ru(II) organometallic derivatives to target tumour metastasis has been widely reported both in vitro and in vivo.[3,6,9,36] Thus, based on the preliminary antiangiogenic trends observed for our target Ru(II) complexes (1Ru and 2Ru) and their parent flavones (1 and 2), we further investigated their antiproliferative and antimetastatic potential on the estrogen receptor positive breast cancer cell line (MCF-7) and the more aggressive triple negative cell line (MDA-MB-231).
# HUVECs were cultured until confluency and then serum starved (0.1% serum) for 24 h. The tube formation assay followed the reported assay.[56] Briefly, 96 well plates were coated with 50 μL of Corning™ Matrigel™ GFR Membrane Matrix at 4 °C and incubated at 37 °C for 1–2 h to solidify. Serum starved HUVECs were seeded on the solidified Matrigel at 3 × 10^5 cells per mL and treated with medium containing VEGF (10 ng mL^−1) and either luteolin or one of the synthesised derivatives (at 1 μM or 10 μM). Plates were incubated for 12 h and photos covering the whole well area were taken using 4× magnification power of an inverted light microscope. Number of junctions, number and length of segments and master segments were quantified from the taken Images via the Angiogenesis Analyzer plugin[57] in ImageJ software.[58] […] Data was represented as a ratio to the positive control (VEGF enriched).
Compound,IC50 [1] [µM],IC50 [2] [µM],Tm [3] [°C],ΔTm [3] [°C],Tm [4] [°C],ΔTm [4] [°C],antimigratory activity [5],effect on the migration [6],IC50 [7] [µM],IC50 [8] [µM],"viability at 24 h, 40 µM [9] [%]",hyperchromic shift (increase) at absorbance maximum λmax [10] [%],hypochromic change at λmax [11] [%],hyperchromic shift (increase) at absorbance maximum λmax [11] [%],melting point [°C],inhibition of the measured elements of tube formation [12] [%]
N.N.[Cl][Pt][Cl] [cisplatin],1.5 to 25,13 to 52,–,–,–,–,–,–,–,–,–,–,–,–,–,–
"O=c1cc(-c2ccc(Cl)cc2)oc2cc(O)cc(O)c12 [compound 1, 2-(4-chlorophenyl)-5,7-dihydroxy-4H-chromen-4-one]",–,–,46,1,44,−2,no observed effects,neither showed any effect,> 100,> 100,~100,2,5,–,–,–
"Oc1cc(O)c2c(=S)cc(-c3ccc(Cl)cc3)oc2c1 [compound 2, 2-(4-chlorophenyl)-5,7-dihydroxy-4H-chromene-4-thione]",–,–,47,2,47,1,–,–,1.2 ± 0.8,43.1 ± 1.29,~100,18,–,16,247.7 to 248,–
"O=c1cc(-c2ccc(O)c(O)c2)oc2cc(O)cc(O)c12 [luteolin, Luteolin, reference compound]",–,–,–,–,–,–,–,–,–,–,–,–,–,–,–,30
